Read-outs that look alike come from different tables or passages of the source.
Molecular target: human H4 receptor (Homo sapiens (Human), UniProt Q9H3N8)
Experiment: H4 Binding assay ([3H]histamine competition, membranes from CHO-K1 cells transfected with human H4 receptor)
Description: Affinity for histamine H4-receptor was determined by H4 Binding assay:
• Membranes from CHO-K1 cells transfected with human H4 receptor and microplates of 96-well format were used. • For competition studies cell membranes were homogenated in Tris-HCl 50 mM, EDTA 5 mM, pH 7.4 and added to the microplate at the concentration of approximately 15 μg/well. […] Non specific binding was defined using 10 μM unlabeled histamine and the total incubation volume was 275 μl per well. • Incubations were performed under gentle agitation at 25° C. for 60 min and concluding with a rapid vacuum filtration using pre-soaked filters (0.5% polyethylenimine). After ten rapid washes with cold wash buffer (50 mM Tris-HCl buffer) the filter plates were dried at room temperature for 30 min. • Finally, scintillation liquid (Microscint 20) was added to the whole microplate in order to measure the radioactivity reattained on the filters using a specific scintillation counter (Top Count—NXT). […] H1 Binding Assay Materials

[1] = affinity for human histamine H4 receptor, class symbols, read-out: ACTIVITY CLASS hH4R (Ki)

Sequence of human H4 receptor (Q9H3N8 whole entry): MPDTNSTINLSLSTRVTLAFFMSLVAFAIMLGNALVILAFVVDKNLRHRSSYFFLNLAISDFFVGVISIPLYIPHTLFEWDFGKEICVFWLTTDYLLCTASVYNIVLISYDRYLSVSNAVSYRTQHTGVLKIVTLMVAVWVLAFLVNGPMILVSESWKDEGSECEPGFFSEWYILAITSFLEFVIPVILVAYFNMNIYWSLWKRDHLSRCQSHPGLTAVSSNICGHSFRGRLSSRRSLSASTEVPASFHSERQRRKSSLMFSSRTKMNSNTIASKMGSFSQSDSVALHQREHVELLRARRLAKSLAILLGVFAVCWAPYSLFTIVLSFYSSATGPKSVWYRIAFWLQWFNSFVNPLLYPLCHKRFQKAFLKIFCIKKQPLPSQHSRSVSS

Structure (SMILES) | Ki [1] | further results
Cc1ccc(NS(=O)(=O)CCNc2nc(N3CCN(C)CC3)nc3cnc(Cl)cc23)cc1 [Example 84, 2-((6-chloro-2-(4-methylpiperazin-1-yl)pyrido[3,4-d]pyrimidin-4-yl)amino)-N-(p-tolyl)ethane-1-sulfonamide] | < 100 nM | –
CN1CCN(c2nc(NCCS(=O)(=O)Nc3ccc(Cl)cc3)c3cc(Cl)ncc3n2)CC1 [Example 82, 2-((6-chloro-2-(4-methylpiperazin-1-yl)pyrido[3,4-d]pyrimidin-4-yl)amino)-N-(4-chlorophenyl)ethane-1-sulfonamide] | < 100 nM | –
CN1CCN(c2nc(NCCS(N)(=O)=O)c3cc(Cl)ncc3n2)CC1 [Example 71, 2-((6-chloro-2-(4-methylpiperazin-1-yl)pyrido[3,4-d]pyrimidin-4-yl)amino)ethane-1-sulfonamide] | < 100 nM | –
Cc1cc(NS(=O)(=O)CCNc2nc(N3CCN(C)CC3)nc3cnc(Cl)cc23)n(C)n1 [Example 90, 2-((6-chloro-2-(4-methylpiperazin-1-yl)pyrido[3,4-d]pyrimidin-4-yl)amino)-N-(1,3-dimethyl-1H-pyrazol-5-yl)ethane-1-sulfonamide] | < 1000 nM | –
CNC(=O)CCNc1nc(N2CCN(C)CC2)nc2cnc(Cl)cc12 [Example 98, 3-((6-chloro-2-(4-methylpiperazin-1-yl)pyrido[3,4-d]pyrimidin-4-yl)amino)-N-methylpropanamide] | < 1000 nM | –
CN1CCN(c2nc(NCCS(=O)(=O)NCc3ccccn3)c3cc(Cl)ncc3n2)CC1 [Example 88, 2-((6-chloro-2-(4-methylpiperazin-1-yl)pyrido[3,4-d]pyrimidin-4-yl)amino)-N-(pyridin-2-ylmethyl)ethane-1-sulfonamide] | < 100 nM | –
CN1CCN(c2nc(NCc3nccs3)c3cc(Cl)ncc3n2)CC1 [Example 7, 6-chloro-2-(4-methylpiperazin-1-yl)-N-(thiazol-2-ylmethyl)pyrido[3,4-d]pyrimidin-4-amine] | < 1000 nM | –
CSc1cccc(NS(=O)(=O)CCNc2nc(N3CCN(C)CC3)nc3cnc(Cl)cc23)c1 [Example 81, 2-((6-chloro-2-(4-methylpiperazin-1-yl)pyrido[3,4-d]pyrimidin-4-yl)amino)-N-(3-(methylthio)phenyl)ethane-1-sulfonamide] | < 100 nM | –
CN1CCN(c2nc(NCCS(=O)(=O)Nc3ccccc3N)c3cc(Cl)ncc3n2)CC1 [Example 75, N-(2-aminophenyl)-2-((6-chloro-2-(4-methylpiperazin-1-yl)pyrido[3,4-d]pyrimidin-4-yl)amino)ethane-1-sulfonamide] | < 1000 nM | –
CC(C)c1cc2c(NCCc3cccs3)nc(N3CCN(C)CC3)nc2cn1 [Example 53, 6-isopropyl-2-(4-methylpiperazin-1-yl)-N-(2-(thiophen-2-yl)ethyl)pyrido[3,4-d]pyrimidin-4-amine] | < 1000 nM | –
CN1CCN(c2nc(NCCS(=O)(=O)Nc3cccc(OC(F)(F)F)c3)c3cc(Cl)ncc3n2)CC1 [Example 77, 2-((6-chloro-2-(4-methylpiperazin-1-yl)pyrido[3,4-d]pyrimidin-4-yl)amino)-N-(3-(trifluoromethoxy)phenyl)ethane-1-sulfonamide] | < 1000 nM | –
Cc1cc2c(NCc3cccs3)nc(N3CCN(C)CC3)nc2cn1 [Example 46, 6-methyl-2-(4-methylpiperazin-1-yl)-N-(thiophen-2-ylmethyl)pyrido[3,4-d]pyrimidin-4-amine] | < 1000 nM | –
CCCCNc1nc(N2CCN(C)CC2)nc2cnc(Cl)cc12 [Example 22, N-butyl-6-chloro-2-(4-methylpiperazin-1-yl)pyrido[3,4-d]pyrimidin-4-amine] | < 1000 nM | –
Cc1ccccc1NS(=O)(=O)CCNc1nc(N2CCN(C)CC2)nc2cnc(Cl)cc12 [Example 73, 2-((6-chloro-2-(4-methylpiperazin-1-yl)pyrido[3,4-d]pyrimidin-4-yl)amino)-N-(o-tolyl)ethane-1-sulfonamide] | < 100 nM | –
CN1CCN(c2nc(NCCS(=O)(=O)Nc3ccc(C(F)(F)F)cc3)c3cc(Cl)ncc3n2)CC1 [Example 83, 2-((6-chloro-2-(4-methylpiperazin-1-yl)pyrido[3,4-d]pyrimidin-4-yl)amino)-N-(4-(trifluoromethyl)phenyl)ethane-1-sulfonamide] | < 1000 nM | –
COc1cccc(NS(=O)(=O)CCNc2nc(N3CCN(C)CC3)nc3cnc(Cl)cc23)c1 [Example 80, 2-((6-chloro-2-(4-methylpiperazin-1-yl)pyrido[3,4-d]pyrimidin-4-yl)amino)-N-(3-methoxyphenyl)ethane-1-sulfonamide] | < 100 nM | –
CN1CCN(c2nc(NCCS(=O)(=O)Nc3cccc(C(F)(F)F)c3)c3cc(Cl)ncc3n2)CC1 [Example 78, 2-((6-chloro-2-(4-methylpiperazin-1-yl)pyrido[3,4-d]pyrimidin-4-yl)amino)-N-(3-(trifluoromethyl)phenyl)ethane-1-sulfonamide] | < 100 nM | –
CN1CCN(c2nc(NCCS(=O)(=O)Nc3cccnc3)c3cc(Cl)ncc3n2)CC1 [Example 86, 2-((6-chloro-2-(4-methylpiperazin-1-yl)pyrido[3,4-d]pyrimidin-4-yl)amino)-N-(pyridin-3-yl)ethane-1-sulfonamide] | < 100 nM | –
O=S(=O)(CCNc1nc(N2CCNCC2)nc2cnc(Cl)cc12)Nc1ccccc1 [Example 26, 2-((6-chloro-2-(piperazin-1-yl)pyrido[3,4-d]pyrimidin-4-yl)amino)-N-phenylethane-1-sulfonamide] | < 100 nM | –
CN1CCN(c2nc(NCc3cccs3)c3cnc(Cl)cc3n2)CC1 [Example 3P, reference compound] | – | IC50 (histamine H4 receptor binding): 889 nM; inhibition at 1 µM (histamine H4 receptor binding, compounds initially evaluated at 1 μM): 68%; Ki (histamine H4 receptor, comparative compounds, read-out: Ki): 340 nM
CN(c1ccccc1)S(=O)(=O)CCNc1nc(N2CCNCC2)nc2cnc(Cl)cc12 [Example 27, 2-((6-chloro-2-(piperazin-1-yl)pyrido[3,4-d]pyrimidin-4-yl)amino)-N-methyl-N-phenylethane-1-sulfonamide] | < 100 nM | –
CN1CCN(c2nc(NCCc3nccs3)c3cc(Cl)ncc3n2)CC1 [Example 70, 6-chloro-2-(4-methylpiperazin-1-yl)-N-(2-(thiazol-2-yl)ethyl)pyrido[3,4-d]pyrimidin-4-amine] | < 1000 nM | –
CNS(=O)(=O)CCNc1nc(N2CCN(C)CC2)nc2cnc(Cl)cc12 [Example 14, 2-((6-chloro-2-(4-methylpiperazin-1-yl)pyrido[34-d]pyrimidin-4-yl)amino)-N-methylethane-1-sulfonamide] | < 100 nM | –
CN1CCN(c2nc(NCCS(=O)(=O)NCc3ccccc3)c3cc(Cl)ncc3n2)CC1 [Example 15, N-benzyl-2-((6-chloro-2-(4-methylpiperazin-1-yl)pyrido[3,4-d]pyrimidin-4-yl)amino)ethane-1-sulfonamide] | < 100 nM | –
CN1CCN(c2nc(NCCS(=O)(=O)Nc3ccccc3)c3cc(Cl)ncc3n2)CC1 [Example 16, 2-((6-chloro-2-(4-methylpiperazin-1-yl)pyrido[3,4-d]pyrimidin-4-yl)amino)-N-phenylethane-1-sulfonamide] | < 100 nM | –
CN1CCN(c2nc(NCc3ncc[nH]3)c3cc(Cl)ncc3n2)CC1 [Example 8, N-((1H-imidazol-2-yl)methyl)-6-chloro-2-(4-methylpiperazin-1-yl)pyrido[3,4-d]pyrimidin-4-amine] | < 1000 nM | –

— patent publication US12492199B2, “Pyridopyrimidines as histamine H4-receptor inhibitors” (FAES FARMA, S.A., priority 2018, dated 2025)
